{
  "source": "patent US10632195B2",
  "about": "“Pharmaceutical device for electric-field assisted administration of Tapentadol and method of administering Tapentadol with same” (Gruenenthal GmbH, priority 2012, dated 2020)",
  "assay": "iontophoretic transdermal delivery of Tapentadol hydrochloride, 8 hours of iontophoresis (example 1a), side-bi-side diffusion cells, constant current 0.25 mA (0.4 mA/cm2), donor 100 mM in water",
  "format": "in vitro ADME, pig",
  "details": "for drug flux across the skin, Mean ± SD / drug flux across the skin, as tapentadol base, Mean ± SD / cumulative, iontophoretic delivery across the skin, Mean ± SD / cumulative, iontophoretic delivery across the skin, as tapentadol base, Mean ± SD: n=6; for drug flux across the skin, Mean ± SD / drug flux across the skin, as tapentadol base, Mean ± SD / cumulative, iontophoretic delivery across the skin, Mean ± SD / cumulative, iontophoretic delivery across the skin, as tapentadol base, Mean ± SD / drug flux across the skin / cumulative, iontophoretic delivery across the skin: patch area 0.64 cm^2; for drug flux across the skin / cumulative, iontophoretic delivery across the skin: single cells 1-6, hydrochloride",
  "experimental": "Determination of the rate of iontophoretic transdermal delivery of Tapentadol hydrochloride for a period of 8 hours of iontophoresis\nTapentadol hydrochloride (batch no. A0012) was employed. The components of the phosphate buffered saline (PBS) and the mobile phase used were from Sigma, UK. The pig skin was obtained from a local farm, washed with water, excess hair was carefully trimmed with scissors, and the skin was dermatomed using a Zimmer dermatome set at a nominal thickness of 750 μm. The skin was then stored at −20° C.\nThe drug was delivered from the anode, using side-bi-side (horizontal) glass diffusion cells (n=6) supplied by Permegear, USA. The porcine skin membrane was excised from the dorsal surface.\nElectrodes were prepared in-house and were made of silver/silver chloride. To pass current for 24 hours in this set-up, it was necessary for the donor compartment to contain 76 mM chloride ions.\nThe anode was placed in the donor chamber; the donor solution was 3 ml of Tapentadol hydrochloride (100 mM, i.e. 25.78 mg/ml of Tapentadol hydrochloride, 22.13 mg/ml of base) in water. The cathode was placed in the receptor chamber, which contained 3 ml of phosphate-buffered saline, pH 7.4. Both chambers were stirred by magnets.\nCurrent was applied for a total of 8 or 24 hours, respectively.\nThe receptor solution was sampled and assayed at 0.5, 1, 2, 3, 4, 5, 6, 7, 8 (example 1a) and optionally 24 hours (example 1b) post-initiation of the current. During the 8 hour experiment (example 1a), at 0.5, 1, 2, and 3 hours, 1 ml of receptor solution was removed and replaced with fresh PBS. As it was clear that the amount of Tapentadol in the receptor solution was sufficient for quantitation by HPLC, at the subsequent sampling times of 4, 5, 6, 7 and 8 hours, the entire receptor solution (3 ml) was removed and replaced with fresh PBS, to ensure sink conditions in the receptor. During the 24 hour experiment (example 1b), the entire receptor solution (3 ml) was removed and replaced with fresh PBS at every sampling point.\nThe concentrations of Tapentadol hydrochloride in the receptor chamber samples were determined by HPLC. A mobile phase consisting of 300:700:1 methanol:water:phosphoric acid was pumped (1 ml/min) through a Acclaim RP-18 (4×150 mm) reverse-phase column (Dionex, UK) at 35° C. Tapentadol concentrations were quantified via their UV absorbance at 215 nm using a calibration curve diluted in PBS at pH 7.4. Injection volume was 20 μl and the retention time for Tapentadol hydrochloride was 12 minutes and the total run time was 16 minutes.\nA Tapentadol-free “blank” diffusion cell (donor was saline only) was also prepared and the receptor solution was analysed after 8 hours to confirm no peaks from any component of the skin co-eluted with the Tapentadol hydrochloride.\nVoltages were as expected for 6 cells in series (range was 6 to 28 volts). The pH of the donor solution was measured after termination of 24 hours of iontophoresis, and ranged from 6.47 to 6.99. The pH of drug in the donor prior to commencing the experiment was 5.07 (5.34 for the 8 hour iontophoresis).",
  "note": "Where “and” joins values, the source holds several entries; their conditions need not be identical. Equal entries are not always repeated. Structures can show the parent of a compound that is named as a salt.",
  "data": [
    {"smiles": "CC[C@@H](c1cccc(O)c1)[C@@H](C)CN(C)C", "note": "[Tapentadol hydrochloride]", "values": [
      {"measurement": "drug flux across the skin, Mean ± SD", "setting": "0.5 h, iontophoresis", "result": "8 ± 8", "unit": "µg/h"},
      {"measurement": "drug flux across the skin, as tapentadol base, Mean ± SD", "setting": "0.5 h, iontophoresis", "result": "7 ± 6", "unit": "µg/h"},
      {"measurement": "cumulative, iontophoretic delivery across the skin, Mean ± SD", "setting": "0.5 h", "result": "4 ± 4", "unit": "µg"},
      {"measurement": "cumulative, iontophoretic delivery across the skin, as tapentadol base, Mean ± SD", "setting": "0.5 h", "result": "3 ± 3", "unit": "µg"},
      {"measurement": "drug flux across the skin, Mean ± SD", "setting": "1 h, iontophoresis", "result": "56 ± 28", "unit": "µg/h"},
      {"measurement": "drug flux across the skin, as tapentadol base, Mean ± SD", "setting": "1 h, iontophoresis", "result": "48 ± 24", "unit": "µg/h"},
      {"measurement": "cumulative, iontophoretic delivery across the skin, Mean ± SD", "setting": "1 h", "result": "32 ± 18", "unit": "µg"},
      {"measurement": "cumulative, iontophoretic delivery across the skin, as tapentadol base, Mean ± SD", "setting": "1 h", "result": "28 ± 15", "unit": "µg"},
      {"measurement": "drug flux across the skin, Mean ± SD", "setting": "2 h, iontophoresis", "result": "115 ± 25", "unit": "µg/h"},
      {"measurement": "drug flux across the skin, as tapentadol base, Mean ± SD", "setting": "2 h, iontophoresis", "result": "98 ± 21", "unit": "µg/h"},
      {"measurement": "drug flux across the skin", "setting": "2 h, iontophoresis", "result": "104 µg/h and 162 µg/h and 119 µg/h and 112 µg/h and 90 µg/h and 102 µg/h"},
      {"measurement": "cumulative, iontophoretic delivery across the skin, Mean ± SD", "setting": "2 h", "result": "147 ± 40", "unit": "µg"},
      {"measurement": "cumulative, iontophoretic delivery across the skin, as tapentadol base, Mean ± SD", "setting": "2 h", "result": "126 ± 35", "unit": "µg"},
      {"measurement": "cumulative, iontophoretic delivery across the skin", "setting": "2 h", "result": "216 µg and 173 µg and 128 µg and 127 µg"},
      {"measurement": "drug flux across the skin, Mean ± SD", "setting": "3 h, iontophoresis", "result": "193 ± 31", "unit": "µg/h"},
      {"measurement": "drug flux across the skin, as tapentadol base, Mean ± SD", "setting": "3 h, iontophoresis", "result": "166 ± 26", "unit": "µg/h"},
      {"measurement": "drug flux across the skin", "setting": "3 h, iontophoresis", "result": "190 µg/h and 201 µg/h and 222 µg/h and 184 µg/h and 139 µg/h and 220 µg/h"},
      {"measurement": "cumulative, iontophoretic delivery across the skin, Mean ± SD", "setting": "3 h", "result": "340 ± 62", "unit": "µg"},
      {"measurement": "cumulative, iontophoretic delivery across the skin, as tapentadol base, Mean ± SD", "setting": "3 h", "result": "291 ± 54", "unit": "µg"},
      {"measurement": "cumulative, iontophoretic delivery across the skin", "setting": "3 h", "result": "321 µg and 417 µg and 396 µg and 312 µg and 244 µg and 347 µg"},
      {"measurement": "drug flux across the skin, Mean ± SD", "setting": "4 h, iontophoresis", "result": "228 ± 23", "unit": "µg/h"},
      {"measurement": "drug flux across the skin, as tapentadol base, Mean ± SD", "setting": "4 h, iontophoresis", "result": "196 ± 20", "unit": "µg/h"},
      {"measurement": "drug flux across the skin", "setting": "4 h, iontophoresis", "result": "229 µg/h and 257 µg/h and 209 µg/h and 250 µg/h and 196 µg/h"},
      {"measurement": "cumulative, iontophoretic delivery across the skin, Mean ± SD", "setting": "4 h", "result": "568 ± 68", "unit": "µg"},
      {"measurement": "cumulative, iontophoretic delivery across the skin, as tapentadol base, Mean ± SD", "setting": "4 h", "result": "487 ± 58", "unit": "µg"},
      {"measurement": "cumulative, iontophoretic delivery across the skin", "setting": "4 h", "result": "550 µg and 674 µg and 624 µg and 522 µg and 494 µg and 543 µg"},
      {"measurement": "drug flux across the skin, Mean ± SD", "setting": "5 h, iontophoresis", "result": "246 ± 30", "unit": "µg/h"},
      {"measurement": "drug flux across the skin, as tapentadol base, Mean ± SD", "setting": "5 h, iontophoresis", "result": "211 ± 26", "unit": "µg/h"},
      {"measurement": "drug flux across the skin", "setting": "5 h, iontophoresis", "result": "242 µg/h and 305 µg/h and 234 µg/h and 238 µg/h and 240 µg/h and 217 µg/h"},
      {"measurement": "cumulative, iontophoretic delivery across the skin, Mean ± SD", "setting": "5 h", "result": "814 ± 92", "unit": "µg"},
      {"measurement": "cumulative, iontophoretic delivery across the skin, as tapentadol base, Mean ± SD", "setting": "5 h", "result": "699 ± 79", "unit": "µg"},
      {"measurement": "cumulative, iontophoretic delivery across the skin", "setting": "5 h", "result": "792 µg and 979 µg and 859 µg and 759 µg and 734 µg and 760 µg"},
      {"measurement": "drug flux across the skin, Mean ± SD", "setting": "6 h, iontophoresis", "result": "244 ± 18", "unit": "µg/h"},
      {"measurement": "drug flux across the skin, as tapentadol base, Mean ± SD", "setting": "6 h, iontophoresis", "result": "209 ± 15", "unit": "µg/h"},
      {"measurement": "drug flux across the skin", "setting": "6 h, iontophoresis", "result": "247 µg/h and 275 µg/h and 245 µg/h and 225 µg/h and 242 µg/h and 228 µg/h"},
      {"measurement": "cumulative, iontophoretic delivery across the skin, Mean ± SD", "setting": "6 h", "result": "1057 ± 107", "unit": "µg"},
      {"measurement": "cumulative, iontophoretic delivery across the skin, as tapentadol base, Mean ± SD", "setting": "6 h", "result": "908 ± 92", "unit": "µg"},
      {"measurement": "cumulative, iontophoretic delivery across the skin", "setting": "6 h", "result": "1040 µg and 1253 µg and 1104 µg and 984 µg and 976 µg and 988 µg"},
      {"measurement": "drug flux across the skin, Mean ± SD", "setting": "7 h, iontophoresis", "result": "261 ± 26", "unit": "µg/h"},
      {"measurement": "drug flux across the skin, as tapentadol base, Mean ± SD", "setting": "7 h, iontophoresis", "result": "224 ± 22", "unit": "µg/h"},
      {"measurement": "drug flux across the skin", "setting": "7 h, iontophoresis", "result": "264 µg/h and 295 µg/h and 271 µg/h and 260 µg/h and 261 µg/h and 215 µg/h"},
      {"measurement": "cumulative, iontophoretic delivery across the skin, Mean ± SD", "setting": "7 h", "result": "1319 ± 128", "unit": "µg"},
      {"measurement": "cumulative, iontophoretic delivery across the skin, as tapentadol base, Mean ± SD", "setting": "7 h", "result": "1132 ± 110", "unit": "µg"},
      {"measurement": "cumulative, iontophoretic delivery across the skin", "setting": "7 h", "result": "1304 µg and 1548 µg and 1375 µg and 1244 µg and 1237 µg and 1203 µg"},
      {"measurement": "drug flux across the skin, Mean ± SD", "setting": "8 h, iontophoresis", "result": "260 ± 46", "unit": "µg/h"},
      {"measurement": "drug flux across the skin, as tapentadol base, Mean ± SD", "setting": "8 h, iontophoresis", "result": "224 ± 40", "unit": "µg/h"},
      {"measurement": "drug flux across the skin", "setting": "8 h, iontophoresis", "result": "260 µg/h and 353 µg/h and 241 µg/h and 234 µg/h and 242 µg/h and 232 µg/h"},
      {"measurement": "cumulative, iontophoretic delivery across the skin, Mean ± SD", "setting": "8 h", "result": "1579 ± 171", "unit": "µg"},
      {"measurement": "cumulative, iontophoretic delivery across the skin, as tapentadol base, Mean ± SD", "setting": "8 h", "result": "1356 ± 147", "unit": "µg"},
      {"measurement": "cumulative, iontophoretic delivery across the skin", "setting": "8 h", "result": "1564 µg and 1901 µg and 1616 µg and 1479 µg and 1435 µg"},
      {"measurement": "time by which steady-state flux appears to have been reached", "setting": "example 1a, iontophoresis", "result": "5 to 6", "unit": "h"}
    ]}
  ]
}
